Measurements reported in PubChem BioAssay (NCI).
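Five concentrations, 48 hours, 96-well plates. TGI marks complete inhibition of growth.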

Columns and labels:
Test in all cases: inhibition of tumour cell growth, NCI panel, 48 h
DU-145 prostate = tested on: DU-145 prostate
MOLT-4 leukemia = tested on: MOLT-4 leukemia
SNB-19 CNS = tested on: SNB-19 CNS
786-0 renal = tested on: 786-0 renal
BT-549 breast = tested on: BT-549 breast
SNB-75 CNS = tested on: SNB-75 CNS
LOX IMVI melanoma = tested on: LOX IMVI melanoma
UACC-257 melanoma = tested on: UACC-257 melanoma
U251 CNS = tested on: U251 CNS
CCRF-CEM leukemia = tested on: CCRF-CEM leukemia
NCI/ADR-RES ovarian = tested on: NCI/ADR-RES ovarian
NCI-H522 lung = tested on: NCI-H522 lung
MDA-N = tested on: MDA-N
UO-31 renal = tested on: UO-31 renal
SK-MEL-2 melanoma = tested on: SK-MEL-2 melanoma
MDA-MB-435 = tested on: MDA-MB-435
OVCAR-5 ovarian = tested on: OVCAR-5 ovarian
RXF 393 renal = tested on: RXF 393 renal
A498 renal = tested on: A498 renal
SW-620 colon = tested on: SW-620 colon
HL-60(TB) leukemia = tested on: HL-60(TB) leukemia
TK-10 renal = tested on: TK-10 renal
UACC-62 melanoma = tested on: UACC-62 melanoma
HT29 colon = tested on: HT29 colon
HCT-116 colon = tested on: HCT-116 colon
OVCAR-8 ovarian = tested on: OVCAR-8 ovarian
RPMI-8226 leukemia = tested on: RPMI-8226 leukemia
MALME-3M melanoma = tested on: MALME-3M melanoma
HCT-15 colon = tested on: HCT-15 colon
EKVX NSCLC = tested on: EKVX NSCLC
K-562 leukemia = tested on: K-562 leukemia
NCI-H23 lung = tested on: NCI-H23 lung
HS 578T breast = tested on: HS 578T breast
COLO 205 colon = tested on: COLO 205 colon
NCI-H460 lung = tested on: NCI-H460 lung
MDA-MB-231 breast = tested on: MDA-MB-231 breast
KM12 colon = tested on: KM12 colon
PC-3 prostate = tested on: PC-3 prostate
OVCAR-4 ovarian = tested on: OVCAR-4 ovarian
SK-MEL-5 melanoma = tested on: SK-MEL-5 melanoma
CAKI-1 renal = tested on: CAKI-1 renal
NCI-H226 lung = tested on: NCI-H226 lung
HCC-2998 colon = tested on: HCC-2998 colon
SR leukemia = tested on: SR leukemia
SN12C renal = tested on: SN12C renal
SK-MEL-28 melanoma = tested on: SK-MEL-28 melanoma
SK-OV-3 ovarian = tested on: SK-OV-3 ovarian
OVCAR-3 ovarian = tested on: OVCAR-3 ovarian
SF-268 CNS = tested on: SF-268 CNS
T-47D breast = tested on: T-47D breast
SF-539 CNS = tested on: SF-539 CNS
MCF7 breast = tested on: MCF7 breast
M14 melanoma = tested on: M14 melanoma
A549 NSCLC = tested on: A549 NSCLC
IGROV1 ovarian = tested on: IGROV1 ovarian
ACHN renal = tested on: ACHN renal
HOP-92 NSCLC = tested on: HOP-92 NSCLC
SF-295 CNS = tested on: SF-295 CNS
HOP-62 NSCLC = tested on: HOP-62 NSCLC

Measured: TGI

CCOC(=O)NNC(=O)NCCNC(=O)NNC(=O)OCC
not listed: IGROV1 ovarian | ACHN renal | HOP-92 NSCLC | SF-295 CNS | HOP-62 NSCLC
> 100 µM: all other assays above

COc1cc(OC)c(-c2cc(=O)c3c(OC)c(OC)c(OC)c(OC)c3o2)cc1OC
59 µM: HOP-92 NSCLC
> 73.9 µM: SNB-75 CNS
> 88.5 µM: UACC-62 melanoma
> 64.6 µM: HL-60(TB) leukemia
> 100 µM: all other assays above
